Test results published in patent EP3551232B1, “STABLE F-DOPA FORMULATIONS AND USES THEREOF” (priority 2016, dated 2018).

Legend:
[1] = enantioselective HPLC (optical stability, racemization); assay type: physicochemical; conditions: 4 mg/mL, 24 h at both 25 and 45 °C, sterile perfusion solution at pH 6.0
Protocol: The HPLC system used to check the chemical stability of F-DOPA, related to its possible oxidation and racemization, consisted of a Waters Associates (Milford, MA, USA) model 1515 equipped with an isocratic pump, a Waters 2487 UV-vis detector, and the Breeze Software to analyze the chromatographic data. The HPLC analysis were performed on a reverse-phase column (Agilent Zorbax SB-Aq C8; 150 x 4.6 mm - 5 µm) kept at room temperature using detection wavelengths of 200 and 280 nm. The mobile phase consisted of 6.9 g/L solution of sodium dihydrogen phosphate adjusted to pH 2.4 with a 4.8 g/L solution of phosphoric acid, and the flow rate was 1 mL/min. The standard injection volume was 20 µL. […] To evaluate optical stability of F-DOPA, chromatograms were recorded on a teicoplanin aglycone-based chiral stationary phase (250 × 4.6 mm, particle size 5 µm, pore size 8 nm) CHIROBIOTIC (ASTEC, Whippany, NJ, USA), by eluting with a mixture 80% acetonitrile and 20% water, at a flow rate of 1 mL/min and a temperature of 25 °C.

[2] = in situ FT-IR monitoring of F-DOPA degradation in aqueous solution; assay type: physicochemical
Protocol: Aimed at better understanding the nature of the F-DOPA degradation products, the progress of the oxidation of F-DOPA was investigated by in situ FT-IR experiments at pH 8.0 and 5.15 at 25 °C (Figure 3).
Nevertheless, an overlapping of the carbonyl and carboxyl groups in the range 1670-1650 cm^-1 of the postulated o-quinone derivatives (Scheme 1) should occur in aqueous solution. However, similar o-quinone species show typical bands at 1660, 1480 and 1380 cm^-1, and are known to be very unstable turning black the solution upon standing. […] Thus, in situ IR experiments confirm the long-time stability of F-DOPA in acidic conditions (pH < 5.15) and the high propensity to undergo degradation under basic conditions. The pH-rate profile was carried out in order to obtain kinetic data.
The degradation pathway and the progress of the F-DOPA oxidation in aqueous solutions were further investigated by in situ FT-IR experiments at pH 8.0 and 5.15 at 25 °C. The experiments were carried out using a Mettler-Toledo ReactIR 4000 and Ic15 instruments equipped with a diamond-tipped (DiComp®) probe (Spectra elaborated with ConcIR® software), monitoring the C=O stretching of the F-DOPA and following new absorptions likely related to oxidized products (Castagnolo, D. et al. 2015; Mansueto, R. et al 2014). In a Schlenk tube equipped with a stirring bar and the React-IR probe, a 0.02 M F-DOPA aqueous solution at pH 5.15 was introduced via syringe at room temperature. Reference spectra for the pure solvent and F-DOPA were collected separately before starting the experiments. The solution was stirred for 10 min, to verify the stability of the readout, and spectra collected every 30 sec. The solution was then stirred for 24 h and constantly monitored by IR spectroscopy.

[3] = cell viability assay, fiber counting (mortality rate); conditions: male, C57BL6, mouse
Protocol: (§1) Single fibers were isolated from the Flexor Digitorum Brevis (FDB) muscles dissected from male C57BL6 mice (N° of mice = 3). Isolated fibers were obtained by incubating the FDB muscles with Dulbecco's modified Eagle's medium (DMEM+) solution composed by IX antibiotics (1%), L-glutamine (1%), FBS (10%) (EuroClone, S.p.A. Milan, Italy) enriched with 0.3 mg/ml collagenase type XI-S (Sigma Chemical Co.).
(§2) For "in vitro" cell viability tests, the F-DOPA powder was directly solubilized in the complete cell culture medium (DMEM+). Stock solutions of ND1, ND2 and ND3 formulations were prepared at the concentration of 10 mg/ml. Microliter amounts of the stock solutions were then added to DMEM as needed, to obtain the final concentrations.
(§3) The fibers were plated, counted under a microscope, and incubated for 3h with increasing concentrations of F-DOPA, ND1, ND2 and ND3 formulations and an imaging analysis was then performed. At the end of the incubation time, the cytotoxicity expressed as mortality rate with respect to the control condition was evaluated by counting the fibers before and after the incubation period.
(§4) The mortality rate of the fibers and cells was calculated by the following equation: [(Ntreated/NCTRL)×100]−100 [formula] where Ntreated is the number of the treated cells and NCTRL is the number of untreated cells.
(§5) The following three parametric logistic function was used to fit the concentrationmortality data of different F-DOPA formulations: percentage change of the mortality rate(%) = Emax ((1+EC50/DOSE))^slope [formula] where Emax, is the maximal drug effect; EC50, is the concentration needed to cause the 50% percent change of the maximal effect; DOSE, is the applied concentration; slope, is the hill slope of the curve (SIGMAPlot 10.0, Systat Software, Inc.).

[4] = tested on: mouse skeletal muscle fibers; assay: as above; conditions: Mus musculus
Protocol: as §1, §2, §3, §4, §5

[5] = amount of F-DOPA dissolved in the formulation compositions; assay type: physicochemical; conditions: in the ND1, ND2 and ND3 compositions
Protocol: Optimum stability for F-DOPA in aqueous formulations is achieved by maintaining the pH at acidic values, by excluding oxygen and incorporating in the formula a chelating agent for metal ion initiators of free-radical oxidation reactions. […] In order to formulate F-DOPA at the optimum acidic pH range, the appropriate buffer was selected. Lactate buffer (1 mM, pH 5.0) was chosen to formulate the parenteral solution, firstly because lactic acid is currently used in intravenous solutions and is already present in commercial formulation and, secondly, because this solution has a pH value compatible with the direct infusion avoiding or minimizing the pain at the injection site. Finally, common methods for decelerating the initiation step require eliminating initiators and catalysts from the formulation. Metals ions can be sequestered by the use of chelators, such as EDTA, citric acid and tartaric acid. […] For comparison purposes the ND3 formulation, having the same commercially available formulation "master formula", was also prepared by solubilizing F-DOPA in an aqueous solution of 17.5 mM acetic acid (1.05 mg/mL, pH = 3.1). In order to mimic the commercial formulation, immediately before its use the pH of ND3 was adjusted to a higher pH value (measured pH = 7.2) by the addition of 100 µL per mL of a sterile solution of 1 M (84 mg/mL) sodium bicarbonate. […]

[6] = UV-Vis absorbance stability in sterile physiological solution; assay type: physicochemical
Excerpt: This behavior was further supported by monitoring the change in UV-Vis absorbance of a pH 6.4 sterile physiological solution containing F-DOPA. […]

SMILES: N[C@@H](Cc1cc(O)c(O)cc1F)C(=O)O [F-DOPA, (2S)-2-Amino-3-(6-fluoro-3,4-dihydroxyphenyl)propanoic acid]
- racemization [1]: no racemization occurs
- loss of vC=O absorbance ([2]; buffer at pH = 8.0, within 2 h, 25 °C): 10%
- additional peaks in the range 1800-1200 cm^-1 (FT-IR) ([2]; pH 5.15, after 16 h, 25 °C): no additional peaks
- appearance of the transparent aqueous solution ([2]; stirring at pH = 8.0 for 24 h): turned to black
- mortality at 3 h, 0.02 mg/ml [3]: < 15%
- mortality at 3 h, 0.05 mg/ml [3]: > 50%
- Emax [4]: 100%
- EC50 ([4]; 3 h): 185 µM
- F-DOPA dissolved per mL [5]: 10 mg/mL
- decrease in F-DOPA initial concentration ([6]; pH 6.4, degassed sterile 0.9% NaCl, 1 to 4 mg/mL, 25 or 45 °C, 6 h, absorbance at 298 nm): less than 5%
- colour of sample ([6]; pH 6.4, sterile 0.9% NaCl, after 24 h incubation): pale pink color
